29 molecules from US11512053B2, “Arginine methyltransferase inhibitors and uses thereof” (priority 2013, dated 2022) can be followed below.

By IC50 is commonly meant the point on the concentration scale where inhibition reaches its midpoint. Usually EC30 stands for the concentration needed for an effect of 30%.

Assay [1] addresses full-length human PRMT6 (Flag- and His-tagged) (Homo sapiens, UniProt Q96LA8). Put plainly: PRMT6 Biochemical Assay (3H-SAM Flashplate, peptide substrate). The settings on record: read-out: Biochemical IC50 PRMT6. Summed up: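 Radiometric methyltransferase readout: tritium transfer onto a biotin-tagged histone H4 36-50 peptide bearing monomethyl K44 (75 nM), captured on streptavidin Flashplates after stopping with 400 uM unlabeled SAM. Enzyme is baculovirus-expressed Flag-PRMT6-His at 1 nM, given 30 min with compound at room temperature before adding 200 nM 3H-SAM and 250 nM cold SAM (pH 7.6 Bicine, 2% DMSO). Percent inhibition relative to max/min (1 mM SAH) controls, curve-fit to IC50.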

Assay [2] deals with mono-methyl arginine in RKO cells. Put plainly: RKO Methylation Assay, In Cell Western (ICW) for detection of mono-methyl arginine and DNA content. Format: cell-based. The note with it: Homo sapiens, RKO, 72 h, RKO cells, read-out: In Cell Western EC30. In outline: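 RKO cells were treated with compound for 72 hours at 37 °C, methanol-fixed and stained overnight at 4 °C with anti-mono-methyl arginine (1:200), with DRAQ5 for DNA. Odyssey 800/700 nm intensity ratio was normalized to DMSO and 20 μM reference-compound controls. EC30 from triplicate nine-point curves.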

The mark [3] stands for this setting: single experiment or average of multiple experiments.
Where [4] appears, read: 72 hours compound incubation, mono-methyl arginine signal normalised to DNA content (DRAQ5), percent activation vs 20 μM reference compound.
The mark [5] stands for this setting: 72 hours incubation, mono-methyl arginine signal normalised to DNA content, single experiment or average of multiple experiments.

Structures can show the parent of a compound that is named as a salt. Where two headings read alike, the source gives them in different places. Some results are limits rather than exact numbers.

Sequence of full-length human PRMT6 (Flag- and His-tagged) (Q96LA8 with tags, fused parts or gaps): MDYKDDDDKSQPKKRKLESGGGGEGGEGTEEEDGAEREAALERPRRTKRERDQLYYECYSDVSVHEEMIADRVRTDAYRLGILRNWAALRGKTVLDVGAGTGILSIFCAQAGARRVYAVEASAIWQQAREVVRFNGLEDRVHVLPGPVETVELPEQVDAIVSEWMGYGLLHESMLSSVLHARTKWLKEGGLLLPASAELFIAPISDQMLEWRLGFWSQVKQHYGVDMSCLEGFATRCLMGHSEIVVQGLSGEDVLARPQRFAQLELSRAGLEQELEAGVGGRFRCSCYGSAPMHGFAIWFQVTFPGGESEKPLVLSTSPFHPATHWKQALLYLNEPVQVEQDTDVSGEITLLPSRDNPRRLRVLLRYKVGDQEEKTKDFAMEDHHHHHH

On to `CCOC[C@H]1CC(c2n[nH]cc2CN(C)CCNC)C[C@H](COCC)C1` (stereo partly drawn) [Compound 188], for which the IC50 is 1010 to 3000 nM in assay [1] and 1230 nM in assay [1] (setting [3]).
For the molecule `CCOC[C@@H]1C[C@H](COCC)C[C@H](c2n[nH]cc2CN(C)CCNC)C1` [Compound 189], the results for the 50% inhibitory concentration (IC50) in assay [1] and in assay [1] (setting [3]) were 1010 to 3000 nM and 1470 nM, respectively. The EC30 in assay [2] (setting [4]) was 3.01 to 12 µM; in assay [2] (setting [5]) it was 6.62 µM.
As for `CNCCN(C)Cc1c[nH]nc1C1CCC(=O)N(CCCOC)C1` (stereo not drawn) [Compound 190], the IC50 is 101 to 1000 nM in assay [1] and 156 nM in assay [1] (setting [3]). Besides, the concentration for an effect of 30% (EC30) in assay [2] (setting [4]) is 3.01 to 12 µM; in assay [2] (setting [5]) it was 6.62 µM.
As for `CNCCN(C)Cc1c[nH]nc1C1CCC(=O)N(Cc2ccc(C(F)(F)F)cc2)C1` (stereo not drawn) [Compound 191], the IC50 was 101 to 1000 nM in assay [1] and 107 nM in assay [1] (setting [3]). The results for the EC30 in assay [2] (setting [4]) and in assay [2] (setting [5]) were 3.01 to 12 µM and 9.25 µM, respectively.
Taken in the same sequence, the figures for `CNCCN(C)Cc1c[nH]nc1[C@H]1CC[C@H](N(CC2CCOCC2)C(=O)CC(C)C)CC1` [Compound 192] were 101 to 1000 nM, 173 nM, 3.01 to 12 µM and 9.25 µM.
Take `CNCCN(C)Cc1c[nH]nc1[C@H]1CC[C@H](N(CC(C)C)C(=O)CC2CCOCC2)CC1` [Compound 193]: the IC50 in assay [1] was < 100 nM; in assay [1] (setting [3]) it was 95.1 nM. Further, the EC30 in assay [2] (setting [4]) is < 3 µM; in assay [2] (setting [5]), 1.44 µM.
For `CNCCN(C)Cc1c[nH]nc1C1CCC(=O)CC1` [Compound 194], the IC50 was < 100 nM in assay [1] and 22.7 nM in assay [1] (setting [3]). Moreover, the EC30 in assay [2] (setting [4]) is < 3 µM; in assay [2] (setting [5]) it was 1.18 µM.
Regarding `CCN(C(=O)CC1CCOCC1)[C@H]1CC[C@H](c2n[nH]cc2CN(C)CCNC)CC1` [Compound 195], the IC50 was < 100 nM in assay [1] and 51.7 nM in assay [1] (setting [3]). Moreover, the results for the EC30 in assay [2] (setting [4]) and in assay [2] (setting [5]) were 3.01 to 12 µM and 4.89 µM, respectively.
On the same counts, the results for `CCN(C(=O)CC1CCOCC1)[C@H]1CC[C@@H](c2n[nH]cc2CN(C)CCNC)CC1` [Compound 196] are 101 to 1000 nM, 111 nM, 3.01 to 12 µM and 4.89 µM.
Taken in the same sequence, the figures for `CNCCN(C)Cc1c[nH]nc1[C@H]1CC[C@]2(CCN(Cc3cc(F)cc(F)c3)C2=O)CC1` [Compound 197] were < 100 nM, 10.7 nM, < 3 µM and 0.406 µM.
On the same counts, the results for `CNCCN(C)Cc1c[nH]nc1[C@H]1CC[C@]2(CCCO2)OC1` [Compound 198] are 3010 to 10000 nM, 8540 nM, < 3 µM and 0.406 µM.
Take `CNCCN(C)Cc1c[nH]nc1C1CCC2(CCCC2)OC1` (stereo not drawn) [Compound 199]: the results for the IC50 in assay [1] and in assay [1] (setting [3]) were < 100 nM and 36.5 nM, respectively. Also, the EC30 in assay [2] (setting [4]) was < 3 µM; in assay [2] (setting [5]), 0.802 µM.
Take `CNCCN(C)Cc1n[nH]cc1[C@H]1CC[C@@]2(CC1)CC(C)(C)CO2` [Compound 200, Methyl[2-(methylamino)ethyl]([4-[(5S,8S)-3,3-dimethyl-1-oxaspiro[4.5]decan-8-yl]-1H-pyrazol-3-yl]methyl)amine trifluoroacetic acid salt]: the half-maximal inhibitory concentration (IC50) in assay [1] was < 100 nM. The EC30 is < 3 µM in assay [2] (setting [4]) and 0.0203 µM in assay [2] (setting [5]).
Taken in the same sequence, the figures for `CNCCN(C)Cc1n[nH]cc1[C@H]1CC[C@]2(CC1)CC(C)(C)CO2` [Compound 201] were 101 to 1000 nM, < 3 µM and 0.155 µM.
Take `CCOCC1CC(c2n[nH]cc2CN(C)CCNC)CCC1(C)C` (stereo not drawn) [Compound 202]: the IC50 is < 100 nM in assay [1] and 66.4 nM in assay [1] (setting [3]). Further, the EC30 in assay [2] (setting [4]) is < 3 µM; in assay [2] (setting [5]), 0.327 µM.
On the same counts, the results for `CNCCN(C)Cc1n[nH]cc1[C@H]1CC[C@H](C(=O)NCCC(C)C)CC1` [Compound 203] are < 100 nM, 36.8 nM, < 3 µM and 0.327 µM.
On the same counts, the results for `CNCCN(C)Cc1c[nH]nc1[C@H]1CC[C@@H](C(=O)NCCC(C)C)CC1` [Compound 204] are < 100 nM, 63.6 nM, < 3 µM and 1.55 µM.
On the same counts, the results for `CNCCN(C)Cc1cn(C)nc1[C@H]1CC[C@@]2(CC1)CC(C)(C)CO2` [Compound 205, Methyl([1-methyl-3-[(5S,8S)-3,3-dimethyl-1-oxaspiro[4.5]decan-8-yl]-1H-pyrazol-4-yl]methyl)[2-(methylamino)ethyl]amine hydrochloride] are < 100 nM, 71.5 nM, < 3 µM and 0.0144 µM.
In the case of `CNCCN(C)Cc1c[nH]nc1[C@H]1CC[C@@H](N(CCOc2ccccc2)C(=O)CCOC)CC1` [Compound 218], the results for the IC50 in assay [1] and in assay [1] (setting [3]) were < 100 nM and 30.3 nM, respectively.
For `CNCCN(C)Cc1c[nH]nc1[C@H]1CC[C@@H](N(CCOc2ccccc2)C(=O)CCCOC)CC1` [Compound 228], the IC50 in assay [1] was < 100 nM; in assay [1] (setting [3]), 18.5 nM.
`CNCCN(C)Cc1c[nH]nc1[C@H]1CC[C@@H](N(CCCOC)C(=O)CC(C)C)CC1` [Compound 242]: the results for the IC50 in assay [1] and in assay [1] (setting [3]) were < 100 nM and 41.7 nM, respectively.
Taken in the same sequence, the figures for `CNCCN(C)Cc1c[nH]nc1[C@H]1CC[C@H](N(CCCOC)C(=O)CCC(C)C)CC1` [Compound 243] were < 100 nM and 15.1 nM.
`CNCCN(C)Cc1cnn(C)c1[C@H]1CC[C@@]2(CC1)CC(C)(C)CO2` [Compound 245, Methyl ([2-[methyl([1-methyl-5-[(5S,8S)-3,3-dimethyl-1-oxaspiro[4.5]decan-8-yl]-1H-pyrazol-4-yl]methyl)amino]ethyl])amine trifluoroacetic acid salt]: the values for the IC50 in assay [1] and in assay [1] (setting [3]) were < 100 nM and 62.2 nM, respectively.
Taken in the same sequence, the figures for `CCN(C(=O)CCC(C)C)[C@H]1CC[C@H](c2n[nH]cc2CN(C)CCNC)CC1` [Compound 250] were < 100 nM and 14.3 nM.
On the same counts, the results for `CNCCN(C)Cc1c[nH]nc1C1CCC(C)(C)[C@@H](C(=O)NCCC(C)C)C1` (stereo partly drawn) [Compound 263, (1S)-2,2-dimethyl-5-[4-({methyl[2-(methylamino)ethyl]amino}methyl)-1H-pyrazol-3-yl]-N-(3-methylbutyl)cyclohexane-1-carboxamide] are < 100 nM and 63.8 nM.
With `CNCCN(C)Cc1c[nH]nc1C1CCC(C)(C)[C@H](C(=O)NCCOC)C1` (stereo partly drawn) [Compound 264], the figures for the IC50 in assay [1] and in assay [1] (setting [3]) were 101 to 1000 nM and 133 nM, respectively.
On the same counts, the results for `CNCCN(C)Cc1c[nH]nc1C1CCC(C)(C)[C@H](C(=O)NCCCOC)C1` (stereo partly drawn) [Compound 265] are 101 to 1000 nM and 174 nM.
On the same counts, the results for `CNCCN(C)Cc1c[nH]nc1C1CCC(C)(C)[C@@H](C(=O)NCC(C)C)C1` (stereo partly drawn) [Compound 266] are < 100 nM and 79 nM.
On the same counts, the results for `CNCCN(C)Cc1c[nH]nc1C1C[C@H](C(=O)N(C)CC(C)C)C(C)(C)[C@H](C(=O)N(C)CC(C)C)C1` (stereo partly drawn) [Compound 267] are 3010 to 10000 nM and ≥ 10000 nM.
